Laboratory results published in patent EP2130831A1, “CDC25 inhibitors” (InterMed Discovery GmbH, priority 2008, dated 2009).
Read-outs that look alike come from different tables or passages of the source.

How the values were obtained:
CDC25C = target: T1, CDC25C (Homo sapiens, UniProt P30307); assay: CDC25C Enzyme Assay (hydrolysis of fluorogenic substrate OMFP); format: biochemical
T1 sequence (P30307 1-473): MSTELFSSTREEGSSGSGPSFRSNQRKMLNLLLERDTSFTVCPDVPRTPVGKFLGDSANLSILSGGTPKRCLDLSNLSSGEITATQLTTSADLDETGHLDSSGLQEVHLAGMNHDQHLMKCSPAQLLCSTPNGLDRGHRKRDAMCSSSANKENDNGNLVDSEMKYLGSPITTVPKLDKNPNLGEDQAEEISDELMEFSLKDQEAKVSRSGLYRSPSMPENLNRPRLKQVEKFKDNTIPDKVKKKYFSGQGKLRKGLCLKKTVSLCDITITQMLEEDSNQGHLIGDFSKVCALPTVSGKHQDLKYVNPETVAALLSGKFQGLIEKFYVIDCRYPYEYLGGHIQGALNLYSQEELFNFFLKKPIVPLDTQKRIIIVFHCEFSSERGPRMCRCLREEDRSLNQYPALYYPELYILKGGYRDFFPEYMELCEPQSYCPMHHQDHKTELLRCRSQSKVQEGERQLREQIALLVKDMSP
Description: The assay principle was hydrolysis of an artificial fluorogenic substrate of CDC25C, 3-0-methyl-fluorescein monophosphate (OMFP). […] The assay was performed in 96 well microtiter plates (Greiner 96 well black FIA plates) at ambient temperature.
The additions to the wells were as follows: 1 Addition of 4 µl of a DMSO solution of the test compound; controls received 4 µl of DMSO instead 2 Addition of 76 µl assay buffer (assay buffer: 100 mM Tris pH 8.2, 40 mM NaCl. 5 mM DTT, 20% glycerol) 3 Addition of 10 µl CDC25 C (CDC25 C in assay buffer; protein final concentration 1.1 µg/mL) 4 Start of reaction by addition of 10 µl OMFP (substrate in assay buffer; final concentration of OMFP in assay: 90 µM )
Ortho-vanadate was used as a reference inhibitor. Background controls contained buffer, substrate and DMSO, but no enzyme. The microtiter plates were analyzed using a Tecan Ultra fluorescence reader.

HCT116 = assay: Cell proliferation Assay (Alamar Blue), HCT116; format: cell-based; settings: Homo sapiens, HCT-116, 72 hrs
Description: (§1) Used cell lines: HCT116; DU145; A549, H460 In a 96-well plate, 3000 cells/well were plated in 100 µl DMEM containing 10% FBS, 10 mM HEPES and 1% Penicllin/Streptomycin. To each well 50 µl of additional growth media containing the compound with 0.1% DMSO was added. Cells were grown for 72 hrs. at 37°C. 20 µl of Alamar Blue reagent was added and incubated for 3-5 hours until color develops. Plates were read in a SpectraMax Gemini (Molecular Devices, CA) with 544 nm excitation and 590 nm emission wavelength.

DU145 = assay: Cell proliferation Assay (Alamar Blue), DU145; format: cell-based; settings: Homo sapiens, DU-145, 72 hrs
Description: as §1

H460 = assay: Cell proliferation Assay (Alamar Blue), H460; format: cell-based; settings: Homo sapiens, NCI-H460, 72 hrs
Description: as §1

CDC25A = target: T2, CDC25A (Homo sapiens, UniProt P30304); assay: CDC25A inhibition assay (sub-type selectivity); format: biochemical; settings: after 20 minutes of pre-incubation; read-out: IC50 against CDC25A
T2 sequence (P30304 1-524): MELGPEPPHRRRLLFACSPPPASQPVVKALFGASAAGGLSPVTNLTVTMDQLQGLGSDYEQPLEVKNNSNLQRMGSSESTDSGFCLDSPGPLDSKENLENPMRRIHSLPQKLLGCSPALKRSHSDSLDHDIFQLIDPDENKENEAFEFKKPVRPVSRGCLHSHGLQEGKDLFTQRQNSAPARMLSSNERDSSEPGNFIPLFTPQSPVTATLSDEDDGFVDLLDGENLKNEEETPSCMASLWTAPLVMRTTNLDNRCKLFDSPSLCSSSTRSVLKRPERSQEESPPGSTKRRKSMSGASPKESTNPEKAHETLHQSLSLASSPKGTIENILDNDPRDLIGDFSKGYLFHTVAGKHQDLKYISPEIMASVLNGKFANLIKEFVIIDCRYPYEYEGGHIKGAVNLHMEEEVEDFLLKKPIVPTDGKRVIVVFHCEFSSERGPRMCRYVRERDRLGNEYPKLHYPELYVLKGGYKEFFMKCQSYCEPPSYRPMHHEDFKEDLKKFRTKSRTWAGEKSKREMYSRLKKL
Source text: (§2) The compound of example 5 was thoroughly characterized towards its selectivity for CDC25 sub-types A, B, and C.

CDC25B = target: T3, CDC25B (Homo sapiens, UniProt P30305); assay: CDC25B inhibition assay (sub-type selectivity); format: biochemical; settings: after 20 minutes of pre-incubation; read-out: IC50 against CDC25B
T3 sequence (P30305 1-580): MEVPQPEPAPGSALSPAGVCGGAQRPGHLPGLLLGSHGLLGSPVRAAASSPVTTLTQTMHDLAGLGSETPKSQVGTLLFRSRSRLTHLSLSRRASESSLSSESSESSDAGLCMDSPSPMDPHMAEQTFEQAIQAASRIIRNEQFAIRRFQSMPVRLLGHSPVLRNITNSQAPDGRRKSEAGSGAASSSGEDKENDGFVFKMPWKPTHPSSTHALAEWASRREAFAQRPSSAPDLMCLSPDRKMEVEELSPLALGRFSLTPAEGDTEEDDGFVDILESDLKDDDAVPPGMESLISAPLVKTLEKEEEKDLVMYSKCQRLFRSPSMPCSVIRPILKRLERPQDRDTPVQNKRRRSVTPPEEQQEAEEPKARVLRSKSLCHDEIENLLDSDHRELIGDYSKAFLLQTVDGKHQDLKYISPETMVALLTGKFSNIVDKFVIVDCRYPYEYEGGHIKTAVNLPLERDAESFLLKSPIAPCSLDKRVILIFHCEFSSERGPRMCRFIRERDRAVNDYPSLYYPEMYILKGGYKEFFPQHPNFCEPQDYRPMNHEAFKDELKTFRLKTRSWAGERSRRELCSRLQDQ
Source text: as §2

PTP1 B = target: T4, PTP1 B (Homo sapiens, UniProt P18031); assay: Phosphatase counter-screen against PTP1 B; format: biochemical
T4 sequence (P18031 1-435): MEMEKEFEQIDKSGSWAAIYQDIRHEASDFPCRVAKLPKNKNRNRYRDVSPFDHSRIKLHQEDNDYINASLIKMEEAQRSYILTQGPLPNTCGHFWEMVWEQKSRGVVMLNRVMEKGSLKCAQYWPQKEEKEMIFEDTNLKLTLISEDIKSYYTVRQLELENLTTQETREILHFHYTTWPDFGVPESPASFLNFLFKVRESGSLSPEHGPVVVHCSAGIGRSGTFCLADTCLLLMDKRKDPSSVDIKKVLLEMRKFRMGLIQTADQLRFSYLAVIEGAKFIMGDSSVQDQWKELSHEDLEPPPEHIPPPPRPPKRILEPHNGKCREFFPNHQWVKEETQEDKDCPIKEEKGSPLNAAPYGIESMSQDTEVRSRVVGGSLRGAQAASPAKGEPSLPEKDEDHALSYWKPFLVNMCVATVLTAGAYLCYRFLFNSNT

LAR (PTPRF) = LAR (PTPRF) (Homo sapiens, UniProt P10586); assay: Phosphatase counter-screen against LAR (PTPRF); format: biochemical
Sequence of LAR (PTPRF) (P10586 30-1907, species assumed): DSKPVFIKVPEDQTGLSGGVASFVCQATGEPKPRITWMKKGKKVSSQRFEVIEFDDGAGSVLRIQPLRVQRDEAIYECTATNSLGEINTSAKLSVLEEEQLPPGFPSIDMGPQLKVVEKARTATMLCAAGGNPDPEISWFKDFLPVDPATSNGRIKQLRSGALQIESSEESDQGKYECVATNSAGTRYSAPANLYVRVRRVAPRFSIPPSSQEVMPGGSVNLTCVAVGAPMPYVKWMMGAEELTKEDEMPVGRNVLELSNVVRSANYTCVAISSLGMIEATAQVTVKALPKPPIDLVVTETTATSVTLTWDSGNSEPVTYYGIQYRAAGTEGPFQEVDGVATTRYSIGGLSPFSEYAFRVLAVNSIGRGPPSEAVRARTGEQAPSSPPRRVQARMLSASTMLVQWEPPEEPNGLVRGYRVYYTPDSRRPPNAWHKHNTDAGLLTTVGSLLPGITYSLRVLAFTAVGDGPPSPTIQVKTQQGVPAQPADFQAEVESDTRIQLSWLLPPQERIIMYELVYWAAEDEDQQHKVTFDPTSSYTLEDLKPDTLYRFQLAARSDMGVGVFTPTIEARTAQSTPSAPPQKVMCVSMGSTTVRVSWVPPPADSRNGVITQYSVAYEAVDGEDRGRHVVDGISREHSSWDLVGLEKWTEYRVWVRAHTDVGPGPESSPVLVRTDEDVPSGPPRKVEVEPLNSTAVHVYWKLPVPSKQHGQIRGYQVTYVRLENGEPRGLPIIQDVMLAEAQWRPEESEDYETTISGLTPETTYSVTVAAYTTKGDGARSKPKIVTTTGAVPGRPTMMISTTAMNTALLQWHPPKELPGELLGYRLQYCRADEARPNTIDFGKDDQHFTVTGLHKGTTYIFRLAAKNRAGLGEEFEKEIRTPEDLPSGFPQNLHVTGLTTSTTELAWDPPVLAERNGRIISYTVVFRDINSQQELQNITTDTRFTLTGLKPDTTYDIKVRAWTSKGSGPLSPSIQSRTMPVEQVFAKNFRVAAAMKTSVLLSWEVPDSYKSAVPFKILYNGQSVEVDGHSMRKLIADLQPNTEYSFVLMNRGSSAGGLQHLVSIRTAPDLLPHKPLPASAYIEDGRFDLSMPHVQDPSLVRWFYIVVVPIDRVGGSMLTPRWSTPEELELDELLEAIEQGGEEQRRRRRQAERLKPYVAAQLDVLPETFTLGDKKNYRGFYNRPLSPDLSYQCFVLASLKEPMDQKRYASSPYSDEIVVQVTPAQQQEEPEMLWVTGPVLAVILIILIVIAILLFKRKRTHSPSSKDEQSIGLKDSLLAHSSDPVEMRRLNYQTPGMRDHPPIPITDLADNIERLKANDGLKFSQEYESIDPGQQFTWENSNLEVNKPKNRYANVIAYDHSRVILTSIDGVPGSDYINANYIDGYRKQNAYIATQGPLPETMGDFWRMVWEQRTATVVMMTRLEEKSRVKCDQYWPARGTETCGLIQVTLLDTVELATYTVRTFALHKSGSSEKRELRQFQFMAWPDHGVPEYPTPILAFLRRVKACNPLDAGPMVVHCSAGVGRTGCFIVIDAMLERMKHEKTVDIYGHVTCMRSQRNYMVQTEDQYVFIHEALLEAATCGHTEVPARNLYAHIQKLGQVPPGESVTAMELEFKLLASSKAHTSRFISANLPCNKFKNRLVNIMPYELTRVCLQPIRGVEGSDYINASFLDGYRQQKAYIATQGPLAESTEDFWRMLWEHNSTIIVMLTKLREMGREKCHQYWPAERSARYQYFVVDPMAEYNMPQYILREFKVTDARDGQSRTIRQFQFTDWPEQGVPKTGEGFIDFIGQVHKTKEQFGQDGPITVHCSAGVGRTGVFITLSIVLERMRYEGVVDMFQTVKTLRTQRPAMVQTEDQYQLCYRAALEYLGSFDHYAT

A549 = assay: Cell proliferation Assay (Alamar Blue), A549; format: cell-based; settings: Homo sapiens, 72 hrs
Description: as §1, with “wavelength. Table #5: Results assay #2” for “wavelength.”

[1] = system: leukemia cell line (P388); assay: In vitro cell assays against a leukemia cell line; format: cell-based; settings: result in words
CDC25 = settings: literature reports; cited from earlier work
[2] = OMFP 90 µM, ambient temperature, assay run time 20 minutes, read-out: IC50

For `Cc1cc(=O)n2c3c(c4c(cc13)c(CO)cc(=O)n4C)OC2` [Example 1, nybomycin], the IC50 (CDC25C; [2]) was > 20000 nM, the IC50 (HCT116) was 730 nM and the IC50 (DU145) was 720 nM. For the same compound, the IC50 (H460) was 230 nM.

With `Cc1cc(=O)n(C)c2c3c4c(cc12)c(C)cc(=O)n4CO3` [Example 2, deoxynybomycin] the IC50 (CDC25C; [2]) was > 10000 nM.

In the case of `Cc1cc(=O)n(C)c2c3c4c(c(C)cc(=O)n4CO3)c(O)c12` [Example 3, 7-hydroxy-deoxynybomycin], the IC50 (CDC25C; [2]) is reported as 5000 nM.

With `Cn1c(=O)cc(CO)c2cc3c(CO)cc(=O)n4c3c(c21)OC4` [Example 4, 6'-hydroxynybomycin] the IC50 (CDC25C; [2]) was 14000 nM.

Compound `Cc1cc(=O)[nH]c2c(O)c3c(cc12)c(C)cc(=O)n3C` [Example 5, 10-hydroxy-1,4,6-trimethylpyndo[3,2-g]quino-line-2,8(1H,9H)-dione] has an IC50 (CDC25C; after 20 minutes of pre-incubation, read-out: IC50 against CDC25C) of 180 nM, an IC50 (CDC25A) of 150 nM and an IC50 (CDC25B) of 230 nM. The “selectivity for CDC25 subtypes in comparison to PTP1 B” value (PTP1 B) was 13 fold, the “selectivity for CDC25 subtypes in comparison to LAR” value (LAR (PTPRF)) was 100 fold and the IC50 (HCT116) was 100 nM. For the same compound, the IC50 (DU145) was 100 nM, the IC50 (A549) was 100 nM and the IC50 (H460) was < 300 nM. The “potential as inhibitors of CDC25 compared with the comparative examples (1, 2, 3, 4, 6 and 9)” value [1] was “much higher potential”.

With `Cc1cc(=O)n(C)c2c(O)c3c(cc12)c(C)cc(=O)n3C` [Example 6, 10-hydroxy-1,4,6,9-tetramethylpyrido[3,2-g]-quinoline-2,8(1H,9H)-dione] the IC50 (CDC25C; [2]) was 14500 nM, the IC50 (HCT116) was 3000 nM and the IC50 (DU145) was 3000 nM. For the same compound, the IC50 (A549) was < 10000 nM and the IC50 (H460) was < 10000 nM.

For `Cc1cc(=O)[nH]c2c(O)c3c(cc12)c(CO)cc(=O)n3C` [Example 7, 10-hydroxy-4-(hydroxymethyl)-1,6-dimethyl-pyrido[3,2-g]quinoline-2,8(1H,9H)-dione], the IC50 (CDC25C; [2]) was 930 nM and the “potential as inhibitors of CDC25 compared with the comparative examples (1, 2, 3, 4, 6 and 9)” value [1] was “much higher potential”.

For `Cc1cc(=O)n(C)c2c(O)c3c(cc12)c(C)cc(=O)n3O` [Example 8, 1,10-dihydroxy-4,6,9-trimethylpyrido[3,2-g]-quinoline-2,8(1H,9H)-dione], the IC50 (CDC25C; [2]) was 520 nM and the “potential as inhibitors of CDC25 compared with the comparative examples (1, 2, 3, 4, 6 and 9)” value [1] was “much higher potential”.

For `CCCc1c2c([nH]c(=O)c1C)C(=O)c1[nH]c(=O)c(C)c(CCC)c1C2=O` [Example 9, 3,7-dimethyl-4,6-dipropylpyrido[3,2-g]-qujnoline-2,5,8,10(1H,9H)-tetraone; Diazaquinomycin A], the IC50 (CDC25C; [2]) was 225000 nM.

In the case of `CCCc1c(C)c(=O)[nH]c2c(O)c3[nH]c(=O)c(C)c(CCC)c3cc12` [Example 10, 10-hydroxy-3,7-dimethyl-4,6-dipropylpyrido-[3,2-g]quinoline-2,8(1H,9H)-dione], the IC50 (CDC25C; [2]) is reported as 850 nM and the “potential as inhibitors of CDC25 compared with the comparative examples (1, 2, 3, 4, 6 and 9)” value [1] is reported as “much higher potential”.

For `C=C(C)CCC[C@]1(C)CCC[C@@H]2C1=CC[C@@H](C)[C@@]2(C)C[C@@H](O)C1=CC(=O)O[C@H]1O` [dysidiolide], the “inhibit CDC25” value (CDC25) is listed as “micromolar levels”.

In the case of coscinosulfate, the “inhibit CDC25” value (CDC25) is listed as “micromolar levels”.

In the case of nocardione, the “inhibit CDC25” value (CDC25) is given as “micromolar levels”.
